The nature of the series: Determination of plasma half-life in athymic nude mice. The conditions noted are these: athymic nude mice (n = 3), i.v. 4–6 MBq, biexponential fit, weighted overall half-life. In kind it is in vivo, mouse. On the procedure: The radioligands ^68Ga-CA027 and ^68Ga-CA028 (4–6 MBq) were injected into athymic nude mice (n = 3) via the lateral tail vein. Blood (25–50 μL) was collected 2, 5, 15, 30, 45, 60, 90, and 120 min post injection via either the tail or saphenous vein, and the activity of the blood samples was determined in a γ-counter. Both procedures furnished consistent and reproducible results. The percentage of the injected dose per gram of tissue (%ID/g) was calculated, and the resulting values were plotted as a function of time. A biexponential decay curve was used as a fit function, accounting for a short blood half-life (a-phase) during the initial phase directly after injection and a longer blood half-life during the terminal phase (b-phase). The data analysis program Prism 7™ was used to determine both half-lives, t1/2-a and t1/2-b, as well as their relative contribution (in %) to the overall half-life (t1/2). Subsequently, both half-lives were weighed according to their relative contribution to the overall blood half-life t1/2. At the time of tracer injection (t = 0), it was assumed that %ID/g = 50. The injected dose at t = 0 equals 100%, divided by the total mass of blood (approximately 2 g in the case of 6‒8 weeks old mice) gives %ID/g t=0 = 50.

For `O=C([O-])CN1CCN(CC(=O)[O-])CCN(Cc2ccc(C(=O)NCC3CCC(C(=O)NC(Cc4ccc5ccccc5c4)C(=O)NCCCCC(NC(=O)NC(CCC(=O)O)C(=O)O)C(=O)O)CC3)cc2)CCN(CC(=O)[O-])CC1.[68Ga+3]` (stereo not shown) [^68Ga-CA028], the “plasma half-life t1/2” value was found to be 5.2 min.

These data come from PMC9396645 (Frontiers in Chemistry, 2022).
